# Source: PMC9266822, “Thermal Shift Assay for Small GTPase Stability Screening: Evaluation and Suitability” (International Journal of Molecular Sciences, 2022)
# Entries after “also recorded” stand apart in the source; their conditions may differ.
# Assays:
# KRAS WT [1] = system: T1, KRAS WT; experiment: Protein-Probe thermal stability assay; format: binding, human; settings: for KRAS stabilizing effect / concentration at which KRAS was stabilized / thermal stability effect: 1 mM MgCl2; for KRAS stabilizing effect / Thermal Stability (°C): GMP 1 mM, GMP-PCP 300 µM; for Thermal Stability (°C): Table S1, additive as headed: EDTA 0.5 mM, MgCl2 1 mM, GDP 10 mM, GTP 10 µM, GTPγS 10 µM, GMP-PNP 300 µM; for thermal stability effect: 10 µM compound
# T1 construct: His6-MBP (N, cleaved yes); made in house; host or cells: E. coli
# Method: (§1) All Protein-Probe assays were performed using a sample volume of 8 µL and a two-step assay protocol. Detection was performed at room temperature (RT) by adding 65 µL Protein-Probe solution: 4 µM HIDC (1,1,3,3,3′,3′-hexamethylindodicarbocyanine iodide) and 1–1.5 nM Eu^3+-labeled peptide probe (NH2-[…]). Assays were performed in a sample buffer containing 10 mM HEPES (pH 7.5), 0.001% Triton X-100 and 20 mM NaCl and the buffer was supplemented with 0–10 mM MgCl2, 0–1 mM CaCl2, or 0–1 mM EDTA, depending on the assay. In all thermal stability assays, samples were preincubated at RT for 10 min (nucleotides) or 30 min (inhibitors) prior to thermal measurements. Depending on the studied protein, thermal ramping was performed up to 95 °C, using 5 °C intervals. At each temperature, samples were incubated for 3 min before the Protein-Probe solution was added, and the TRL-signals at 620 nm were monitored at RT.
# (§2) In addition, KRAS WT was monitored in a sample buffer supplemented with 0–10 mM MgCl2 or 0–1 mM CaCl2.
# […] KRAS WT (50 nM) was also monitored with 10 µM GDP in a buffer without MgCl2 or supplemented with 0–1 mM CaCl2 or 1 mM EDTA. HRAS (2 µM), NRAS (2 µM), RhoA (2 µM), and Gαi (50 nM) were monitored with 100 µM GDP, GTP, or ATP in buffers with or without 1 mM MgCl2 and 1 mM EDTA. In addition, melting curves for KRAS WT (50 nM) were measured with GTP analogs GTPγS, GMPPNP, and GMPPCP (0–300 µM), and GMP (0–1000 µM) in the presence of 1 mM MgCl2.
# (§3) All inhibitor assays were performed with a buffer containing 1 mM MgCl2. […]
# KRAS WT [2] = molecular target: T2, KRAS WT (Homo sapiens, UniProt P01116); experiment: QRET nucleotide exchange assay, SOScat induced; format: biochemical; settings: for KRAS binding level / KRAS binding: Fig. 3A legend, SOScat 10 nM; for KRAS binding level / EC50 / KRAS binding: 15 nM KRAS; for EC50: nucleotide titration, SOScat 5 nM (Table S2), 10 nM (Fig. 3 legend)
# T2 construct: GG-Hs.KRAS4b (2-188), GG-Hs.KRAS4b (2-188) G12C; His6-MBP (N, cleaved yes); made in house; host or cells: E. coli
# RhoA = system: T3, RhoA; experiment: Protein-Probe thermal stability assay; format: binding; settings: Table S1; RhoA 1 µM; additive concentrations not given (100 µM GDP/GTP)
# T3 construct: and RhoA (1-182) were gen-; His6-MBP (N, cleaved yes); made in house; host or cells: E. coli
# Method: as §1, §2
# KRAS G13D (50 nM) was monitored in the presence of 0–900 nM GDP, and KRAS WT, G13D, G12D, and Q61R (50 nM) were monitored with 10 and/or 100 µM GDP, GTP, and ATP in buffer supplemented with 1 mM MgCl2. KRAS WT (50 nM) was also monitored with 10 µM GDP in a buffer without MgCl2 or supplemented with 0–1 mM CaCl2 or 1 mM EDTA. […] In addition, melting curves for KRAS WT (50 nM) were measured with GTP analogs GTPγS, GMPPNP, and GMPPCP (0–300 µM), and GMP (0–1000 µM) in the presence of 1 mM MgCl2.
# Gαi = experiment: Protein-Probe thermal stability assay; format: binding; settings: 100 µM GDP or GTP
# Method: as §1, §2
# (§4) KRAS G13D (50 nM) was monitored in the presence of 0–900 nM GDP, and KRAS WT, G13D, G12D, and Q61R (50 nM) were monitored with 10 and/or 100 µM GDP, GTP, and ATP in buffer supplemented with 1 mM MgCl2. KRAS WT (50 nM) was also monitored with 10 µM GDP in a buffer without MgCl2 or supplemented with 0–1 mM CaCl2 or 1 mM EDTA. HRAS (2 µM), NRAS (2 µM), RhoA (2 µM), and Gαi (50 nM) were monitored with 100 µM GDP, GTP, or ATP in buffers with or without 1 mM MgCl2 and 1 mM EDTA. In addition, melting curves for KRAS WT (50 nM) were measured with GTP analogs GTPγS, GMPPNP, and GMPPCP (0–300 µM), and GMP (0–1000 µM) in the presence of 1 mM MgCl2.
# KRAS G13D = system: T4, KRAS G13D; experiment: Protein-Probe thermal stability assay; format: binding, human; settings: for Thermal Stability (°C): Table S1, KRAS G13D 50 nM, EDTA 0.5 mM, MgCl2 1 mM, GDP 10 mM, GTP 10 µM as headed
# T4 construct: GG-Hs.KRAS4b (2-188) G13D; His6-MBP (N, cleaved yes); made in house; host or cells: E. coli
# Method: as §1, §2, §4
# (§5) Assays were performed using three DARPins alone or in combination with small molecular inhibitors. […] The thermal curves were monitored after an additional 30 min incubation at RT.
# KRAS Q61R = system: T5, KRAS Q61R; experiment: Protein-Probe thermal stability assay; format: binding, human; settings: for Thermal Stability (°C): Table S1, KRAS Q61R 50 nM, EDTA 0.5 mM, MgCl2 1 mM, GDP 10 mM, GTP 10 µM as headed
# T5 construct: GG-Hs.KRAS4b (2-188) Q61R; His6-MBP (N, cleaved yes); made in house; host or cells: E. coli
# Method: as §1, §2, §4, §5
# KRAS G12C = system: T6, KRAS G12C; experiment: Protein-Probe thermal stability assay; format: binding, human; settings: for thermal stability effect: 10 µM compound, 1 mM MgCl2
# T6 construct: GG-Hs.KRAS4b (2-188) G12C; His6-MBP (N, cleaved yes); made in house; host or cells: E. coli
# Method: All Protein-Probe assays were performed using a sample volume of 8 µL and a two-step assay protocol. […] Assays were performed in a sample buffer containing 10 mM HEPES (pH 7.5), 0.001% Triton X-100 and 20 mM NaCl and the buffer was supplemented with 0–10 mM MgCl2, 0–1 mM CaCl2, or 0–1 mM EDTA, depending on the assay. In all thermal stability assays, samples were preincubated at RT for 10 min (nucleotides) or 30 min (inhibitors) prior to thermal measurements. […] At each temperature, samples were incubated for 3 min before the Protein-Probe solution was added, and the TRL-signals at 620 nm were monitored at RT. […]
# as §3
# KRAS G12D = experiment: Protein-Probe thermal stability assay; format: binding, human; settings: KRAS G12D 50 nM; 10 µM compound
# Method: as §1, §2, §4
# All inhibitor assays were performed with a buffer containing 1 mM MgCl2.
# as §5
# T2 sequence (P01116 2-188 isoform P01116-2): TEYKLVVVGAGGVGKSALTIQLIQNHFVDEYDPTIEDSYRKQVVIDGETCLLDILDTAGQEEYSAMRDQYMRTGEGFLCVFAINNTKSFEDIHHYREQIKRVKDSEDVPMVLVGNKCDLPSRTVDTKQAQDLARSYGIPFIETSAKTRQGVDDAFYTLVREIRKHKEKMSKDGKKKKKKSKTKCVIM
smiles,measurement,setting,value
"Nc1nc2c(ncn2C2OC(COP(=O)(O)OP(=O)(O)CP(=O)(O)O)C(O)C2O)c(=O)[nH]1 (stereo not drawn) [GMP-PCP, guanosine-5’-[(β,γ)-methyleno]triphosphate]",KRAS stabilizing effect,KRAS WT [1]; KRAS WT 50 nM,minor effects
same,Thermal Stability (°C),KRAS WT [1]; KRAS WT 50 nM,64.4 °C
same,KRAS binding level,KRAS WT [2],micromolar
same,EC50,KRAS WT [2],542 ± 38 nM
"Nc1nc2c(ncn2[C@@H]2O[C@H](COP(=O)(O)OP(=O)(O)OP(O)(O)=S)[C@@H](O)[C@H]2O)c(=O)[nH]1 [GTPγS, guanosine-5’-(γ-thio)-triphosphate]",concentration at which KRAS was stabilized,KRAS WT [1]; KRAS WT 50 nM,10000 nM
same,Thermal Stability (°C),KRAS WT [1]; KRAS WT 50 nM,67.8 ± 0.6 °C
same,KRAS binding,KRAS WT [2],< 15 nM
same,EC50,KRAS WT [2],11.7 ± 0.8 nM
[Ca+2].[Cl-].[Cl-] [CaCl2],stability increase compared to 1 mM EDTA,"KRAS WT [1]; KRAS WT 50 nM, additive 0.1 mM",1.2 °C
same,stability increase compared to 1 mM EDTA,"KRAS WT [1]; KRAS WT 50 nM, additive 1 mM",3.7 °C
"Nc1nc2c(ncn2[C@@H]2O[C@H](COP(=O)(O)OP(=O)(O)NP(=O)(O)O)[C@@H](O)[C@H]2O)c(=O)[nH]1 [GMP-PNP, guanosine-5’-[(β,γ)-imido]triphosphate]",Tm of nucleotide-preloaded KRAS,"KRAS WT [1]; KRAS 50 nM preloaded with the nucleotide, unit not given, in °C (unit assumed)",53.2 ± 0.3
same,concentration at which KRAS was stabilized,KRAS WT [1]; KRAS WT 50 nM,300000 nM
same,Thermal Stability (°C),KRAS WT [1]; KRAS WT 50 nM,67.1 ± 0.1 °C
same,KRAS binding level,KRAS WT [2],micromolar
same,EC50,KRAS WT [2],71.2 ± 9.3 nM
"Nc1nc2c(ncn2[C@@H]2O[C@H](COP(=O)(O)OP(=O)(O)OP(=O)(O)O)[C@@H](O)[C@H]2O)c(=O)[nH]1 [GTP, guanosine-5’-triphosphate]",concentration at which KRAS was stabilized,KRAS WT [1]; KRAS WT 50 nM,10000 nM
same,Thermal Stability (°C),KRAS WT [1]; KRAS WT 50 nM,68.2 °C
same,Thermal Stability (°C),RhoA,73.0 °C
same,max ΔTm,Gαi; with Mg2+,≤ 1.0 °C
same,max ΔTm,Gαi; without Mg2+,≤ 3.3 °C
same,Thermal Stability (°C),KRAS G13D,60.8 °C
same,Thermal Stability (°C),KRAS Q61R,71.7 °C
same,KRAS binding,KRAS WT [2],< 15 nM
same,EC50,KRAS WT [2],7.9 ± 0.6 nM
Cn1cnc(Cn2ccc3ccc(CNCc4[nH]c5ccccc5c4[C@@H]4NC(=O)c5ccc(O)cc54)cc32)c1 [BI-2853],thermal stability effect,KRAS WT [1]; KRAS WT 50 nM,Neither compound altered
same,thermal stability effect,KRAS G12C; KRAS G12C 50 nM,no response
same,thermal stability effect,KRAS G12D,Neither compound altered
same,effect on KRAS nucleotide exchange activity,"KRAS WT [2]; 100 nM KRAS WT, 10 nM SOScat",no effect
Cn1cnc(Cn2ccc3ccc(CNCc4[nH]c5ccccc5c4[C@H]4NC(=O)c5ccc(O)cc54)cc32)c1 [BI-2852],thermal stability effect,KRAS WT [1]; KRAS WT 50 nM,Neither compound altered; also recorded: negligible
same,thermal stability effect,KRAS G12C; KRAS G12C 50 nM,negligible
same,thermal stability effect,KRAS G12D,Neither compound altered; also recorded: negligible
same,IC50,"KRAS WT [2]; 100 nM KRAS WT, 10 nM SOScat, inhibitor preincubated with KRAS",2800 ± 700 nM
O=C(O)CN(CCN(CC(=O)O)CC(=O)O)CC(=O)O [EDTA],Tm,"KRAS WT [1]; KRAS WT 50 nM, 1 mM EDTA, unit not given, in °C (unit assumed)",50.8 ± 0.6
same,Tm,"KRAS WT [1]; KRAS WT 100 nM, additive 1 mM",48.9 ± 0.4 °C
same,Thermal Stability (°C),KRAS WT [1]; KRAS WT 50 nM,49.0 °C
same,Thermal Stability (°C),"KRAS G12C; Table S1, KRAS G12C 50 nM, EDTA 0.5 mM, MgCl2 1 mM",48.2 ± 0.4 °C
same,Thermal Stability (°C),RhoA,44.7 °C
same,Tm,"KRAS G13D; KRAS G13D 100 nM, additive 1 mM",43.6 ± 0.8 °C
same,Thermal Stability (°C),KRAS G13D,47.7 ± 0.5 °C
same,Tm,"KRAS Q61R; KRAS Q61R 100 nM, additive 1 mM",50.6 ± 1.0 °C
same,Thermal Stability (°C),KRAS Q61R,51.8 ± 0.9 °C
C=C(F)C(=O)N1CCN(c2nc(OC[C@@H]3CCCN3C)nc3c2CCN(c2cccc4cccc(Cl)c24)C3)C[C@@H]1CC#N [MRTX849],ΔTm,"KRAS G12C; 50 nM KRAS G12C, inhibitor 0–900 nM, thermal stability increase",15.6 °C
CNCc1ccccc1-c1csc([C@@H](C)Nc2nc(C)nc3cc(OC)c(OC)cc23)c1 [BAY-293],thermal stability effect,KRAS G12C; KRAS G12C 50 nM,no response
"Nc1nc2c(ncn2[C@@H]2O[C@H](COP(=O)(O)O)[C@@H](O)[C@H]2O)c(=O)[nH]1 [GMP, guanosine-5’-monophosphate]",KRAS stabilizing effect,KRAS WT [1]; KRAS WT 50 nM,no KRAS stabilizing effect; also recorded: no KRAS stabilization
same,Thermal Stability (°C),KRAS WT [1]; KRAS WT 50 nM,61.3 °C
same,EC50,KRAS WT [2],101000 ± 8000 nM
